Test results: US7417066B2, “Inhibitors of soluble adenylate cyclase” (Schering AG, priority 2005, dated 2008)

What follows are compounds tested against soluble, sperm-specific adenylate cyclase (sAC) (Homo sapiens, UniProt Q96PN6) (assay: sAC assay (HTRF cAMP detection)). Details: read-out: IC50 (μM), inhibition of soluble adenylate cyclase.
Format: biochemical
Excerpt: In a suitable buffer system, soluble, sperm-specific adenylate cyclase catalyzes the conversion of adenosine triphosphate (ATP) to cyclic adenosine monophosphate (cAMP) and pyrophosphate. Free cAMP generated in this way is then used in a competitive detection technique, in which the binding of a europium cryptate Eu[K]-labeled anti-cAMP antibody (anti-cAMP-Eu[K]-AB) to a modified allophycocyanine-1 molecule labeled with cAMP molecules (cAMP-XL665) is prevented. In the absence of exogenous cAMP, after excitation at 335 nm there is Fluorescence Resonance Energy Transfer (FRET) between the anti-cAMP-Eu[K]-AB (FRET donor) and the cAMP-XL665 molecule (FRET acceptor). This process is quantified, time-resolved, on the basis of the emission of the FRET acceptor XL665 (665 nm and 620 nm). A decrease in signal (measured as Well Ratio; calculated from the Formula: [(E665 nm/E620 nm)×10000]) can be attributed to the presence of cAMP and thus to the activity of sAC. First, 1.5 μl of the test substance (in 30% DMSO) is placed in each well of a 384-well test plate (polystyrene; 384, NV), and in the solvent controls only 30% DMSO. Then 10 μl of a dilute sAC enzyme solution is applied (enzyme stock solution in 300 mM NaCl, 10% glycerol; pH 7.6; enzyme intermediate and final dilution a) 1:10 and b) 1:2000 in each case in: 1.0 mM MnCl2; 0.2% BSA; 50 mM Tris pH 7.5 in H2O). […]
Next, 8 μl of detection solution 1 is placed in a well of the 384-well measuring plate (measuring plate: polystyrene; 384, SV—black; detection solution 1: 50 μl cAMP-XL665; 950 μl reconstituted buffer; 2200 μl PBS; cAMP-XL665: prepared by adding 5 ml H2O to the lyophilized product according to the instructions in Cis bio Kit: 62AMPPEC; storage: in aliquots at −80° C.). […] After further incubation for 90 min at room temperature, the HTRF result is measured either on the Packard Discovery or with the RubiStar HTRF measuring instrument (delay: 50 μs; integration time: 400 μs).

soluble, sperm-specific adenylate cyclase (sAC), sequence (Q96PN6 whole entry): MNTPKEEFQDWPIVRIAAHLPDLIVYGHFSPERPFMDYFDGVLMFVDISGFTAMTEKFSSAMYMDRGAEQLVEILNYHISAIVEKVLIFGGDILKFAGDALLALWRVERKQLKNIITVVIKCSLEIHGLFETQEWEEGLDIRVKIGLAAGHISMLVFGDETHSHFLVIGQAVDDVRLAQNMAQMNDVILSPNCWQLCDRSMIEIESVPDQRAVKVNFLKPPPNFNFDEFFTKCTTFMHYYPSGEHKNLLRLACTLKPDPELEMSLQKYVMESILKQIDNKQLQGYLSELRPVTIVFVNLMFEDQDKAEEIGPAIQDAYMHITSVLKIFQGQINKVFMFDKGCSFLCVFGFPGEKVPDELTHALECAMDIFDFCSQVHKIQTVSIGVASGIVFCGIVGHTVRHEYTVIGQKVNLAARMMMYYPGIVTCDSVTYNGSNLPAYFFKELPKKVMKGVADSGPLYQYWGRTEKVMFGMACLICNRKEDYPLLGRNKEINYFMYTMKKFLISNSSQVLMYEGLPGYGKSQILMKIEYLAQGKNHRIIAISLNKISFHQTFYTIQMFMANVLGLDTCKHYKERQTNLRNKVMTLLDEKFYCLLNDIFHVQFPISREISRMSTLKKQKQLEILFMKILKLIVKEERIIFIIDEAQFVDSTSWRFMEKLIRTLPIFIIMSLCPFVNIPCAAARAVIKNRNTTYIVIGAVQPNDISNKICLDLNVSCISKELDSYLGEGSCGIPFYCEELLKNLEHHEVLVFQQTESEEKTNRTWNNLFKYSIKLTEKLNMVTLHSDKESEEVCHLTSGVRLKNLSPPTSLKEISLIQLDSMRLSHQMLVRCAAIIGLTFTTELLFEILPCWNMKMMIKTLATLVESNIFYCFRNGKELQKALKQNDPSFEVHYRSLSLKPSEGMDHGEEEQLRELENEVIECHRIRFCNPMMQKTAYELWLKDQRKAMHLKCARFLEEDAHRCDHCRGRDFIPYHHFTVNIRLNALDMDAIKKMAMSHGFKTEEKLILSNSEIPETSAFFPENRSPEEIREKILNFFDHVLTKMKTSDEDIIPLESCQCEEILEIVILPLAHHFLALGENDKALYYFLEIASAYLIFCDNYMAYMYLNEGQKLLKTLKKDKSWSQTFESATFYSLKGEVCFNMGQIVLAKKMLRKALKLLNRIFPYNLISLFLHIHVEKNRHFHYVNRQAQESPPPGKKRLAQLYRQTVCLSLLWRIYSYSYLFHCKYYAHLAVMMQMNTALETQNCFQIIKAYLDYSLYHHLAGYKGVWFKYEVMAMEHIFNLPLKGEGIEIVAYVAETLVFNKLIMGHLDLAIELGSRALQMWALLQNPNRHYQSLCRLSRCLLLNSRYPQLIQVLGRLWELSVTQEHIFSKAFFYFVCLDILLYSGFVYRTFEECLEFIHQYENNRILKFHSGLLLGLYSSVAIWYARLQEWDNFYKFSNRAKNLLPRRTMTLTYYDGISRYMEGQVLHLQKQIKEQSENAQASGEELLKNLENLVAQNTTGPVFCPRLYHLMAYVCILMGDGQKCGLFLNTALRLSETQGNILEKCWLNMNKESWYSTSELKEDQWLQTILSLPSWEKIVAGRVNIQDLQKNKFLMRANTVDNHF

SMILES	IC50 [µM]
CC(O)CNC(=O)c1oc2ccc(NS(=O)(=O)c3ccc(C(C)(C)C)cc3)cc2c1-c1ccccc1 (racemic) [Example 16, (+/−)-5-(4-tert-Butylphenylsulfonylamino)-3-phe-nyl-1-benzofuran-2-carboxylicacid-(2-hydroxypropyl)amide]	4.3
CC(CO)NC(=O)c1oc2ccc(NS(=O)(=O)c3ccc(C(C)(C)C)cc3)cc2c1-c1ccccc1 (racemic) [Example 17, (+/−)-5-(4-tert-Butylbenzenesulfonylamino)-3-phe-nyl-1-benzofuran-2-carboxylicacid-(2-hydroxy-1-meth-ylethyl)amide]	8.5
CC(C)(C)c1ccc(S(=O)(=O)Nc2ccc3oc(C(=O)NCCN4CCOCC4)c(-c4ccccc4)c3c2)cc1 [Example 6, 5-(4-tert-Butylbenzenesulfonylamino)-3-phe-nyl-1-benzofuran-2-carboxylicacid-(2-morpholin-4-ylethyl)amide]	5.2
